# From patent US20220160716A1 (SORBONNE UNIVERSITE, priority 2019, published 2022)
# What was measured:
# CDK9/T = biological target: T1, CDK9/T (Homo sapiens, UniProt P50750); experiment: Protein kinase catalytic activity assay, CDK9/cyclin T; format: biochemical; conditions: activator cyclin T; read-out: IC50 of protein kinases, CDK9/T
# T1 construct: made in house
# DYRK1A = biological target: T2, DYRK1A (Homo sapiens, UniProt Q13627); experiment: Protein kinase catalytic activity assay, DYRK1A; format: biochemical; conditions: read-out: IC50 of protein kinases, DYRK1A
# T2 construct: made in house
# CK1 = experiment: Protein kinase catalytic activity assay, CK1; format: biochemical; conditions: read-out: IC50 of protein kinases, CK1
# CLK1 = biological target: T3, CLK1 (Homo sapiens, UniProt P49759); experiment: Protein kinase catalytic activity assay, CLK1; format: biochemical; conditions: read-out: IC50 of protein kinases, CLK1
# T3 construct: made in house
# GSK3 = GSK3 (Homo sapiens, UniProt P49841); experiment: Protein kinase catalytic activity assay, GSK3; format: biochemical; conditions: read-out: IC50 of protein kinases, GSK3
# ABCB4-I541F = ABCB4-I541F (Homo sapiens, UniProt P21439, I541F); experiment: Maturation of ABCB4-I541F by immunoblot in HEK cells; format: cell-based; parameters: The subcloning of wild type (WT) ABCB4, isoform A (NM_000443.3), into pcDNA3 vector has been described; expressed in transfected cells; host or cells: HEK-293 (immunoblot, PC secretion); conditions: HEK cells, 100 μM, 16 hours, immunoblot
# Procedure: (§1) Cyclosporin A (CsA) was from Santa Cruz Biotechnologies (Dallas, Tex.). […] Each compound was solubilized in dimethylsulfoxide (DMSO) as 1000× concentrated stock solutions in order to treat cells with 5 μM to 100 μM final concentrations, using DMSO as control vehicle at the same dilution (0.1% DMSO for all conditions). The cells were treated 24 hours post-transfection with these drugs during 16 hours, except for the viability assays for which cells were treated during three days. After drug treatment, cells were used for immunoanalyses, cell viability assays or PC secretion assays.
# Western blots and indirect immunofluorescence were performed as previously described (2, 12). […] Signals were detected with ECL prime western blotting detection reagent (GE Healthcare, Velizy-Villacoublay, France) and quantified in the linear range of detection using ImageJ 1.50i software (U.S. National Institutes of Health, Bethesda, Md.).
# CDK5/p25 = biological target: T4, CDK5/p25 (Homo sapiens, UniProt Q00535); format: biochemical; conditions: activator p25; read-out: IC50 of protein kinases, CDK5/p25
# T4 construct: made in house
# CDK2/A = biological target: T5, CDK2/A (Homo sapiens, UniProt P24941); experiment: Protein kinase catalytic activity assay, CDK2/cyclin A; format: biochemical; conditions: activator cyclin A; read-out: IC50 of protein kinases, CDK2/A
# T5 construct: made in house
# HEK cells = experiment: Cell viability MTT assay in HEK cells; conditions: three days
# Procedure: as §1
# Cell viability was assessed by the conversion of MTT (3-[4,5-dimethylthiazol-2-yl]-2,5 diphenyl tetrazolium bromide) into formazan crystals by living cells, as described (14). […] These conditions were optimized in order to maintain the absorbance at 540 nm of the blanks below 0.1 OD unit (negative controls) and the absorbance at 540 nm for untreated cells between 1.0 and 1.3 OD units (positive controls). Then culture media were gently washed out, cells were lysed in 100 μL of pure DMSO and absorbance at 540 nm was measured using a multiplate cytofluorimeter SpectraFluor from Tecan (Männedorf, Switzerland). Cell viability was calculated for each triplicate after background subtraction and expressed as percentage of the mean for cells treated with vehicle only.
# GSK3, sequence (P49841 whole entry, canonical isoform): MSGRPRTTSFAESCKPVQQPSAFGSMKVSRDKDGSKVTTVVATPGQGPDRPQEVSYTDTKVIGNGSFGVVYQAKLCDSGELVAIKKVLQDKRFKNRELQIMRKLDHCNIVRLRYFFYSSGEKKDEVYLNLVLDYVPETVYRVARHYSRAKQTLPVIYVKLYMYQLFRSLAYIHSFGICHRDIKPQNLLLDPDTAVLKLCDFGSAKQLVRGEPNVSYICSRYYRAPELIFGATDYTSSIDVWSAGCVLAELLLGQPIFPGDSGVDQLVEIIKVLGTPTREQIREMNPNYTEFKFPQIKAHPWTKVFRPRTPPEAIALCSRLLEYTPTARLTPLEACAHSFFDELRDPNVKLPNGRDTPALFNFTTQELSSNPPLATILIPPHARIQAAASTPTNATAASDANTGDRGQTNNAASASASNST
# T3 sequence (P49759 whole entry): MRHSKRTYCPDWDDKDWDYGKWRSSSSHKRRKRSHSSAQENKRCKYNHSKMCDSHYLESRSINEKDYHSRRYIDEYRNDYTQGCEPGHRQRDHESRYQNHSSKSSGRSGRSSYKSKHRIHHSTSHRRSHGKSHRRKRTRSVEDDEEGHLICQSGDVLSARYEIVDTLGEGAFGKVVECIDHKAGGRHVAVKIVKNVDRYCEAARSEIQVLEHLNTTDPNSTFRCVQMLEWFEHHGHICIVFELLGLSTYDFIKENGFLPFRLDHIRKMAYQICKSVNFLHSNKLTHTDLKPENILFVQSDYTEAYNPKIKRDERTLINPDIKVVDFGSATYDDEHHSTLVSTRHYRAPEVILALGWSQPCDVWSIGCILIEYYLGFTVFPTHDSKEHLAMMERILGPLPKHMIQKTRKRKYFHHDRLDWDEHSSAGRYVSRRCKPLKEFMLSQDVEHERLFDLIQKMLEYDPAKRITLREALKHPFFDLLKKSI
# ABCB4-I541F, sequence (P21439 1-1279 isoform P21439-2 I541F): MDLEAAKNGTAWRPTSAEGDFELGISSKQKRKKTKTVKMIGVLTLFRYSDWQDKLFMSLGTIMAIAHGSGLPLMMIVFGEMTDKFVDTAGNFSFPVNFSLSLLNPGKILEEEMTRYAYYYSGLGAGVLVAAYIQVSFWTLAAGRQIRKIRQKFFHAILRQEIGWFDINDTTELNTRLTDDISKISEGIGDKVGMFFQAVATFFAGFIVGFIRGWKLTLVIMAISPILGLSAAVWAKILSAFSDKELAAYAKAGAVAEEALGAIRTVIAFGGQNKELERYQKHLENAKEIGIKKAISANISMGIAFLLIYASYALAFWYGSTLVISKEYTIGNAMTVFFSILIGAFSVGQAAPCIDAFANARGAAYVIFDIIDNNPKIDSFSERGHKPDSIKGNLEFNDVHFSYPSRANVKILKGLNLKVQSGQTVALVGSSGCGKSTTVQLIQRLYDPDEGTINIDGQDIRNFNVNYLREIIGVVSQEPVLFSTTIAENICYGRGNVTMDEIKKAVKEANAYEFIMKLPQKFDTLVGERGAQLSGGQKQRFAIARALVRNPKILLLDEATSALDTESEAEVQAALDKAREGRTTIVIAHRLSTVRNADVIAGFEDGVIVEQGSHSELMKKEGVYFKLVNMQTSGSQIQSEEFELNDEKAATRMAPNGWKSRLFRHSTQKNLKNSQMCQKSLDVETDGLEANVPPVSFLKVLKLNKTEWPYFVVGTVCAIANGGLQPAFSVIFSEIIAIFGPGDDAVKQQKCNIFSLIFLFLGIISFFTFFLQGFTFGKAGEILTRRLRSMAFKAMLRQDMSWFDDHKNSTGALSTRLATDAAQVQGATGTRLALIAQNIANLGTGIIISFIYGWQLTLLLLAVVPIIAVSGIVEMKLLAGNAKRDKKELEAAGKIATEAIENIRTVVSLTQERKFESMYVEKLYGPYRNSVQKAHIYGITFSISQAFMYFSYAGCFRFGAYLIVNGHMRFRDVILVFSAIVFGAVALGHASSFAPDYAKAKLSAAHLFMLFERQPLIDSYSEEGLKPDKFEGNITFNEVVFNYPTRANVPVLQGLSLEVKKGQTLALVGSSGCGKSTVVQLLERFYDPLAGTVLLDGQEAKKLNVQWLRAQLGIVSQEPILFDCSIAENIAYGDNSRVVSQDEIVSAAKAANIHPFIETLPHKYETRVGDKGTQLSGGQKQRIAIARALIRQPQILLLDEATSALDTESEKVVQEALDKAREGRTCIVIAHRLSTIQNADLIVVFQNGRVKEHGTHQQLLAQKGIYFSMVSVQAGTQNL
# T1 sequence (P50750 whole entry, species assumed): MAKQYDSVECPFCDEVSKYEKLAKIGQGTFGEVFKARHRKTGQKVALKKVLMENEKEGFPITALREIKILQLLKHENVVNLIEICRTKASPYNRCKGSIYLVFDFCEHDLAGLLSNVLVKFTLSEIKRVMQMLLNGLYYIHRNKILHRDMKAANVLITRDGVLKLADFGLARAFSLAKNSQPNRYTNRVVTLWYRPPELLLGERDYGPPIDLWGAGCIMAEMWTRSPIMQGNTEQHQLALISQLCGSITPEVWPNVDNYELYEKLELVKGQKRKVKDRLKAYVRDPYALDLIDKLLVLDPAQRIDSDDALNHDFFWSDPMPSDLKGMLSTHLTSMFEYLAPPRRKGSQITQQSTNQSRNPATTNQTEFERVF
# T1 sequence (O60563 whole entry partner, species assumed): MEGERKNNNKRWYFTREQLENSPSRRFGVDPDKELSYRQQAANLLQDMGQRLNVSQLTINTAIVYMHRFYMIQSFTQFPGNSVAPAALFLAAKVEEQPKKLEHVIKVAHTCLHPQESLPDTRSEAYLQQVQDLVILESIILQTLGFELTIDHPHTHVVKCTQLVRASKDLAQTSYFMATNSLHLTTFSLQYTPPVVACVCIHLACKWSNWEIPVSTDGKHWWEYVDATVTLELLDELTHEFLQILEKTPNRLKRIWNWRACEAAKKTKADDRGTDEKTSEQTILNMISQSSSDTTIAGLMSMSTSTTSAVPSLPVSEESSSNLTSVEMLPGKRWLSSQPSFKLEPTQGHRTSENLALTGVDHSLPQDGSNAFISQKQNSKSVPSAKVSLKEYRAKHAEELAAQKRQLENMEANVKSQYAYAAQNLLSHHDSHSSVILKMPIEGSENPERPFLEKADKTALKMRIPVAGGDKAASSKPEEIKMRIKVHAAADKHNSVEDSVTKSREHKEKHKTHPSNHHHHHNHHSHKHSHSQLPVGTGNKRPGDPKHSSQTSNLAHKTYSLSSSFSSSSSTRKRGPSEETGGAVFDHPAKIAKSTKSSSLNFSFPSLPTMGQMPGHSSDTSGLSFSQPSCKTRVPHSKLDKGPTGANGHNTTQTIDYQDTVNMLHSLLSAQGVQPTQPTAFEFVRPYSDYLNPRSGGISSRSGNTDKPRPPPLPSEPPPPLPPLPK
# T4 sequence (Q00535 whole entry, species assumed): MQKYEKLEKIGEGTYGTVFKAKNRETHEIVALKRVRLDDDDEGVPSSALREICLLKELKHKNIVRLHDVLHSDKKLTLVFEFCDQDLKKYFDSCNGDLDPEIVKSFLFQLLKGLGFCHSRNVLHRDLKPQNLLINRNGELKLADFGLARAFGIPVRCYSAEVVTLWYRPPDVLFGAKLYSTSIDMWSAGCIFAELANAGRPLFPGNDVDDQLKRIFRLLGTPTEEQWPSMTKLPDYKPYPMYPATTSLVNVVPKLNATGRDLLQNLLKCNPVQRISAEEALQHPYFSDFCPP
# T4 sequence (Q15078 99-307 partner limits assumed, species assumed): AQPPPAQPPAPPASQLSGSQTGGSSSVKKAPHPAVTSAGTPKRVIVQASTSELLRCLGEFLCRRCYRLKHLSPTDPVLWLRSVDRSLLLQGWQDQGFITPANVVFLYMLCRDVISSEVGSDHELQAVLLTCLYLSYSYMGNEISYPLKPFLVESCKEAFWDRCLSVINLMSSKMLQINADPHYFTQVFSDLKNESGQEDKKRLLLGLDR
SMILES,IC50 (CDK9/T) [µM],IC50 (DYRK1A) [µM],IC50 (CK1) [µM],IC50 (CLK1) [µM],IC50 (GSK3) [µM],maturation (mature form) of ABCB4-I541F (ABCB4-I541F),IC50 (CDK5/p25) [µM],IC50 (CDK2/A) [µM],"cell viability (HEK cells; 25 μM, % of vehicle-treated cells)",cytotoxicity (HEK cells; increasing concentrations)
"CC[C@@H](Nc1nc(NCc2ccccc2)c2ncn(C(C)C)c2n1)C(=O)O [M3, reference compound]",> 33,19,> 33,> 33,> 10,,,,,
CC(C)n1cnc2c(NCc3ccccc3)nc(N[C@@H](CO)C(=O)O)nc21 [MRT2-164],17,> 10,28,> 33,> 10,,,,,
CC[C@@H](Nc1nc(NCc2cccc(C(F)(F)F)c2)c2ncn(C3CCCC3)c2n1)C(=O)O [MRT2-239],20,21,4,9,> 10,significantly increase the expression of a mature form of ABCB4-I541F,11,8,,
CC[C@@H](Nc1nc(NCc2ccc(F)c(F)c2)c2ncn(C3CCCC3)c2n1)C(=O)O [MRT2-241],8,20,11,13,> 10,significantly increase the expression of a mature form of ABCB4-I541F,17,5.1,,
CC[C@@H](Nc1nc(NCc2ccccc2)c2ncn(C3CCCC3)c2n1)C(=O)O [MRT2-245],28,21,17,13,> 10,significantly increase the expression of a mature form of ABCB4-I541F,15,6.3,,
CC[C@@H](Nc1nc(NCc2cccc(C(F)(F)F)c2)c2ncn(C(C)C)c2n1)C(=O)O [MRT2-249],> 33,9,5,23,> 10,significantly increase the expression of a mature form of ABCB4-I541F,27,9,,
"CC[C@H](CO)Nc1nc(NCc2ccccc2)c2ncn(C(C)C)c2n1 [Roscovitine, (R)-roscovitine]",,,,,,,,,less than 60%,important dose-dependent cytotoxicity
